pIC50: −log10 of the molar value.
System: 762968-020-R-J2-PDC spheroids viability
Test: Anticancer human tumor 762968-020-R-J2-PDC patient-derived colon carcinoma cell line growth inhibition [TAK]
Settings: spheroids with HUVEC and MSC; for pIC50: curve of first compound; for viability, T/C: stronger effect = lower value
Description: Combinatorial screen of targeted agents with TAK-243 and ipatasertib in multi-cell type tumor spheroids
A high-throughput screen of multi-cell type tumor spheroids was designed to identify active combinations of targeted small molecules and TAK-243 or ipatasertib. Complex spheroids include a stromal component modeled by human endothelial cells (HUVEC) and fibroblasts modeled by human mesenchymal stem cells (MSCs). The concentration ranges selected for each drug and investigational agent were based upon clinically achievable concentrations if the clinical Cmax of the agent was known.
Compounds. The drugs and investigational agents: TAK-243 (785004), ipatasertib (767898), everolimus (733504), selumetinib (741078), bortezomib (756655), trametinib (758246), ixazomib (758254), vemurafenib (761431), dabrafenib (764134), sapanisertib (764658), alpelisib (765974), and copanlisib (816437), were obtained from the National Cancer Institute (NCI) Developmental Therapeutics Program Chemical Repository. The FDA-approved anticancer drug set is available from the NCI Developmental Therapeutics Program. […] The stock solutions were prepared in dimethyl sulfoxide (DMSO, Sigma-Aldrich, St. Louis, MO, cat. D2650) at 800-fold the tested concentration and stored at -70 degrees C prior to their use. All drugs and investigational agents were tested over a range starting from a high concentration at or near the clinical Cmax and decreasing in half-log increments. If the clinical Cmax for an agent had not been determined, the highest concentration tested was 10 microM.
NCI60 Cell Culture. NCI60 cell lines were obtained from the NCI Developmental Therapeutics Program Tumor Repository. For each lot of cells, the Repository performed Applied Biosystems AmpFLSTR Identifiler testing with PCR amplification to confirm consistency with the published Identifier STR profile for each cell line. Cells were kept in continuous culture for no more than 20 passages. The optimal seeding densities for each of the cell lines at each time point assessed were determined prior to performing the concentration response studies. Briefly, the NCI60 human tumor lines were grown as monolayers in RPMI 1640 medium supplemented with 10% FBS and 2 mmol/L L-glutamine.
An additional 2 lines were from the NCI60 cell line panel including melanomas, MALME-3M and SK-MEL-2. Pooled donor human umbilical vein endothelial cells (HUVEC, Lonza, cat. CC-2519) and human mesenchymal stem cells (hMSC, Lonza, cat. PT-2501) were purchased from Lonza (Walkersville, MD).
PDMR cell lines were grown in complete medium (DC medium): Dulbecco's modified Eagle's medium (DMEM)/F12 supplemented with 5% fetal bovine serum (FBS), 2 mM L-glutamine, 100 U/mL penicillin and 100 µg/ml streptomycin, 0.4 µg/ml hydrocortisone, 10 ng/ml epidermal growth factor (EGF) recombinant human protein, 24 µg/mL adenine, and 0.1 mg/mL primocin. During culture from frozen stock vials, PDMR cells were cultured in the same medium containing 10 µM Y-27632 (see Table 3). The PDCs were cultured in complete DMEM/F12 media without 10 microM Y-27632 dihydrochloride for at least two passages prior to the screen. The pooled donor HUVEC and hMSC were cultured in endothelial cell growth medium 2 (PromoCell, Heidelberg, Germany, cat. C-22011) and mesenchymal stem cell growth medium 2 (PromoCell, cat. C-28009), respectively. For all experiments, HUVEC and hMSC were used at passages </=5.
For the pre-screen, cell seeding densities were determined from a titration spanning the range from 5,000 to 313 cells per well. The mct-spheroids including 60% malignant cells, 25% HUVEC and 15% MSC dispensed as a mixture into U-bottom Ultra-Low Attachment 384-well plates (Corning, NY)
High-throughput Drug Combination Screening.
Prior to their inoculation into 384-well plates, malignant cells, HUVEC, and hMSC were removed from T flasks using TrypLE express (Thermo Fisher Scientific, cat. 12605036) and harvested by centrifugation for 5 min at 233 x g. […]
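Note: spheroids exposed to drug for 7 days before readout.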
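Throughout, for viability, T/C: 100% = DMSO vehicle control wells.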

## Cn1cnc2c(F)c(Nc3ccc(Br)cc3Cl)c(C(=O)NOCCO)cc21 + CC(C)NCC(C(=O)N1CCN(c2ncnc3c2C(C)CC3O)CC1)c1ccc(Cl)cc1
Second compound 0.3 µM
  pIC50: 5.63
Second compound 0.949 µM
  pIC50: < 5.52
Second compound 3 µM
  pIC50: < 5.52
Second compound 9.49 µM
  pIC50: < 5.52
Second compound 30 µM
  pIC50: < 5.52
Second compound 0.3 µM, first compound 0.00949 µM
  viability, T/C: 94.6%
Second compound 0.3 µM, first compound 0.03 µM
  viability, T/C: 95.5%
Second compound 0.3 µM, first compound 0.0949 µM
  viability, T/C: 89.6%
Second compound 0.3 µM, first compound 0.3 µM
  viability, T/C: 84.2%
Second compound 0.3 µM, first compound 0.949 µM
  viability, T/C: 69.9%
Second compound 0.3 µM, first compound 3 µM
  viability, T/C: 44.5%
Second compound 0.949 µM, first compound 0.00949 µM
  viability, T/C: 103%
Second compound 0.949 µM, first compound 0.03 µM
  viability, T/C: 97.5%
Second compound 0.949 µM, first compound 0.0949 µM
  viability, T/C: 87%
Second compound 0.949 µM, first compound 0.3 µM
  viability, T/C: 83.4%
Second compound 0.949 µM, first compound 0.949 µM
  viability, T/C: 74.8%
Second compound 0.949 µM, first compound 3 µM
  viability, T/C: 50.5%
Second compound 3 µM, first compound 0.00949 µM
  viability, T/C: 106%
Second compound 3 µM, first compound 0.03 µM
  viability, T/C: 97.7%
Second compound 3 µM, first compound 0.0949 µM
  viability, T/C: 95.2%
Second compound 3 µM, first compound 0.3 µM
  viability, T/C: 85.8%
Second compound 3 µM, first compound 0.949 µM
  viability, T/C: 72.2%
Second compound 3 µM, first compound 3 µM
  viability, T/C: 58.4%
Second compound 9.49 µM, first compound 0.00949 µM
  viability, T/C: 96.5%
Second compound 9.49 µM, first compound 0.03 µM
  viability, T/C: 83.7%
Second compound 9.49 µM, first compound 0.0949 µM
  viability, T/C: 80.6%
Second compound 9.49 µM, first compound 0.3 µM
  viability, T/C: 79.1%
Second compound 9.49 µM, first compound 0.949 µM
  viability, T/C: 66.3%
Second compound 9.49 µM, first compound 3 µM
  viability, T/C: 55.8%
Second compound 30 µM, first compound 0.00949 µM
  viability, T/C: 82.7%
Second compound 30 µM, first compound 0.03 µM
  viability, T/C: 85.3%
Second compound 30 µM, first compound 0.0949 µM
  viability, T/C: 83.2%
Second compound 30 µM, first compound 0.3 µM
  viability, T/C: 79%
Second compound 30 µM, first compound 0.949 µM
  viability, T/C: 70.5%
Second compound 30 µM, first compound 3 µM
  viability, T/C: 57.8%

## CC(C)n1nc(-c2ccc3oc(N)nc3c2)c2c(N)ncnc21 + CC(C)NCC(C(=O)N1CCN(c2ncnc3c2C(C)CC3O)CC1)c1ccc(Cl)cc1
Second compound 0.3 µM
  pIC50: < 7.00
Second compound 0.949 µM
  pIC50: < 7.00
Second compound 3 µM
  pIC50: < 7.00
Second compound 9.49 µM
  pIC50: < 7.00
Second compound 30 µM
  pIC50: < 7.00
Second compound 0.3 µM, first compound 0.000316 µM
  viability, T/C: 96.5%
Second compound 0.3 µM, first compound 0.001 µM
  viability, T/C: 97.1%
Second compound 0.3 µM, first compound 0.00316 µM
  viability, T/C: 101%
Second compound 0.3 µM, first compound 0.01 µM
  viability, T/C: 91.8%
Second compound 0.3 µM, first compound 0.0316 µM
  viability, T/C: 87.5%
Second compound 0.3 µM, first compound 0.1 µM
  viability, T/C: 72.9%
Second compound 0.949 µM, first compound 0.000316 µM
  viability, T/C: 96.9%
Second compound 0.949 µM, first compound 0.001 µM
  viability, T/C: 96.7%
Second compound 0.949 µM, first compound 0.00316 µM
  viability, T/C: 99.9%
Second compound 0.949 µM, first compound 0.01 µM
  viability, T/C: 99.3%
Second compound 0.949 µM, first compound 0.0316 µM
  viability, T/C: 87.4%
Second compound 0.949 µM, first compound 0.1 µM
  viability, T/C: 73.2%
Second compound 3 µM, first compound 0.000316 µM
  viability, T/C: 99.5%
Second compound 3 µM, first compound 0.001 µM
  viability, T/C: 95.1%
Second compound 3 µM, first compound 0.00316 µM
  viability, T/C: 103%
Second compound 3 µM, first compound 0.01 µM
  viability, T/C: 93.4%
Second compound 3 µM, first compound 0.0316 µM
  viability, T/C: 92.3%
Second compound 3 µM, first compound 0.1 µM
  viability, T/C: 65.7%
Second compound 9.49 µM, first compound 0.000316 µM
  viability, T/C: 94.4%
Second compound 9.49 µM, first compound 0.001 µM
  viability, T/C: 103%
Second compound 9.49 µM, first compound 0.00316 µM
  viability, T/C: 98.3%
Second compound 9.49 µM, first compound 0.01 µM
  viability, T/C: 93.4%
Second compound 9.49 µM, first compound 0.0316 µM
  viability, T/C: 79.1%
Second compound 9.49 µM, first compound 0.1 µM
  viability, T/C: 63.5%
Second compound 30 µM, first compound 0.000316 µM
  viability, T/C: 83%
Second compound 30 µM, first compound 0.001 µM
  viability, T/C: 84.2%
Second compound 30 µM, first compound 0.00316 µM
  viability, T/C: 84.3%
Second compound 30 µM, first compound 0.01 µM
  viability, T/C: 81.9%
Second compound 30 µM, first compound 0.0316 µM
  viability, T/C: 74%
Second compound 30 µM, first compound 0.1 µM
  viability, T/C: 63.6%
